The NIST ThermoML archive (doi:10.1016/j.jct.2012.03.003)
Numbers after ± are expanded uncertainties.

Test: xn = mol fraction of the nth substance listed
Conditions: Liquid, Vibrating tube method

Compound `COc1cc2c(cc1O)CC1c3c(cc(O)c(OC)c3-2)CCN1C` (stereo not given) [boldine] + CCCO has a mass density (333.04 K, 7000 kPa, x1 = 0.0077) of 789.55 ± 0.68 kg/m3, a mass density (333.04 K, 7000 kPa, x1 = 0.0112) of 796.25 ± 0.73 kg/m3 and a mass density (333.04 K, 7000 kPa, x1 = 0.0142) of 800.8 ± 0.64 kg/m3. The mass density (333.04 K, 8000 kPa, x1 = 0.0018) was 780.38 ± 0.93 kg/m3, the mass density (333.04 K, 8000 kPa, x1 = 0.0077) was 790.45 ± 0.68 kg/m3 and the mass density (333.04 K, 8000 kPa, x1 = 0.0112) was 797.14 ± 0.73 kg/m3. It also gave a mass density (333.04 K, 8000 kPa, x1 = 0.0142) of 801.7 ± 0.65 kg/m3, a mass density (333.04 K, 9000 kPa, x1 = 0.0018) of 781.29 ± 0.93 kg/m3 and a mass density (333.04 K, 9000 kPa, x1 = 0.0077) of 791.35 ± 0.68 kg/m3. It also gave a mass density (333.04 K, 9000 kPa, x1 = 0.0112) of 798.03 ± 0.73 kg/m3, a mass density (333.04 K, 9000 kPa, x1 = 0.0142) of 802.57 ± 0.65 kg/m3 and a mass density (333.04 K, 10000 kPa, x1 = 0.0018) of 782.18 ± 0.93 kg/m3. It also gave a mass density (333.04 K, 10000 kPa, x1 = 0.0077) of 792.22 ± 0.69 kg/m3, a mass density (333.04 K, 10000 kPa, x1 = 0.0112) of 798.91 ± 0.74 kg/m3 and a mass density (333.04 K, 10000 kPa, x1 = 0.0142) of 803.44 ± 0.65 kg/m3. For the same compound, the mass density (333.04 K, 11000 kPa, x1 = 0.0018) was 783.07 ± 0.94 kg/m3, the mass density (333.04 K, 11000 kPa, x1 = 0.0077) was 793.11 ± 0.69 kg/m3 and the mass density (333.04 K, 11000 kPa, x1 = 0.0112) was 799.78 ± 0.74 kg/m3. For the same compound, the mass density (333.04 K, 11000 kPa, x1 = 0.0142) was 804.31 ± 0.65 kg/m3, the mass density (333.04 K, 12000 kPa, x1 = 0.0018) was 783.97 ± 0.94 kg/m3 and the mass density (333.04 K, 12000 kPa, x1 = 0.0077) was 793.99 ± 0.69 kg/m3. The mass density (333.04 K, 12000 kPa, x1 = 0.0112) was 800.64 ± 0.74 kg/m3, the mass density (333.04 K, 12000 kPa, x1 = 0.0142) was 805.16 ± 0.66 kg/m3 and the mass density (333.04 K, 13000 kPa, x1 = 0.0018) was 784.84 ± 0.94 kg/m3. For the same compound, the mass density (333.04 K, 13000 kPa, x1 = 0.0077) was 794.86 ± 0.69 kg/m3, the mass density (333.04 K, 13000 kPa, x1 = 0.0112) was 801.49 ± 0.74 kg/m3 and the mass density (333.04 K, 13000 kPa, x1 = 0.0142) was 806.02 ± 0.66 kg/m3. It also gave a mass density (333.04 K, 14000 kPa, x1 = 0.0018) of 785.7 ± 0.94 kg/m3, a mass density (333.04 K, 14000 kPa, x1 = 0.0077) of 795.71 ± 0.7 kg/m3 and a mass density (333.04 K, 14000 kPa, x1 = 0.0112) of 802.35 ± 0.75 kg/m3. For the same compound, the mass density (333.04 K, 14000 kPa, x1 = 0.0142) was 806.86 ± 0.66 kg/m3, the mass density (333.04 K, 15000 kPa, x1 = 0.0018) was 786.56 ± 0.95 kg/m3 and the mass density (333.04 K, 15000 kPa, x1 = 0.0077) was 796.55 ± 0.7 kg/m3. The mass density (333.04 K, 15000 kPa, x1 = 0.0112) was 803.19 ± 0.75 kg/m3, the mass density (333.04 K, 15000 kPa, x1 = 0.0142) was 807.69 ± 0.67 kg/m3 and the mass density (333.04 K, 16000 kPa, x1 = 0.0018) was 787.41 ± 0.95 kg/m3. It also gave a mass density (333.04 K, 16000 kPa, x1 = 0.0077) of 797.38 ± 0.7 kg/m3, a mass density (333.04 K, 16000 kPa, x1 = 0.0112) of 804 ± 0.75 kg/m3 and a mass density (333.04 K, 16000 kPa, x1 = 0.0142) of 808.51 ± 0.67 kg/m3. The mass density (333.04 K, 17000 kPa, x1 = 0.0018) was 788.23 ± 0.95 kg/m3, the mass density (333.04 K, 17000 kPa, x1 = 0.0077) was 798.2 ± 0.71 kg/m3 and the mass density (333.04 K, 17000 kPa, x1 = 0.0112) was 804.81 ± 0.75 kg/m3. It also gave a mass density (333.04 K, 17000 kPa, x1 = 0.0142) of 809.32 ± 0.67 kg/m3, a mass density (333.04 K, 18000 kPa, x1 = 0.0018) of 789.05 ± 0.95 kg/m3 and a mass density (333.04 K, 18000 kPa, x1 = 0.0077) of 799.02 ± 0.71 kg/m3. For the same compound, the mass density (333.04 K, 18000 kPa, x1 = 0.0112) was 805.61 ± 0.76 kg/m3, the mass density (333.04 K, 18000 kPa, x1 = 0.0142) was 810.12 ± 0.68 kg/m3 and the mass density (333.04 K, 19000 kPa, x1 = 0.0018) was 789.86 ± 0.95 kg/m3. The mass density (333.04 K, 19000 kPa, x1 = 0.0077) was 799.81 ± 0.71 kg/m3, the mass density (333.04 K, 19000 kPa, x1 = 0.0112) was 806.39 ± 0.76 kg/m3 and the mass density (333.04 K, 19000 kPa, x1 = 0.0142) was 810.91 ± 0.68 kg/m3. For the same compound, the mass density (333.04 K, 20000 kPa, x1 = 0.0018) was 790.65 ± 0.96 kg/m3, the mass density (333.04 K, 20000 kPa, x1 = 0.0077) was 800.56 ± 0.72 kg/m3 and the mass density (333.04 K, 20000 kPa, x1 = 0.0112) was 807.16 ± 0.76 kg/m3. It also gave a mass density (333.04 K, 20000 kPa, x1 = 0.0142) of 811.68 ± 0.69 kg/m3, a mass density (333.07 K, 1000 kPa, x1 = 0.0046) of 780.3 ± 0.7 kg/m3 and a mass density (333.07 K, 2000 kPa, x1 = 0.0046) of 781.23 ± 0.7 kg/m3. For the same compound, the mass density (333.07 K, 3000 kPa, x1 = 0.0046) was 782.1 ± 0.7 kg/m3, the mass density (333.07 K, 4000 kPa, x1 = 0.0046) was 783.02 ± 0.71 kg/m3 and the mass density (333.07 K, 5000 kPa, x1 = 0.0046) was 783.92 ± 0.71 kg/m3. The mass density (333.07 K, 6000 kPa, x1 = 0.0046) was 784.83 ± 0.71 kg/m3, the mass density (333.07 K, 7000 kPa, x1 = 0.0046) was 785.74 ± 0.71 kg/m3 and the mass density (333.07 K, 8000 kPa, x1 = 0.0046) was 786.64 ± 0.72 kg/m3. For the same compound, the mass density (333.07 K, 9000 kPa, x1 = 0.0046) was 787.54 ± 0.72 kg/m3, the mass density (333.07 K, 10000 kPa, x1 = 0.0046) was 788.44 ± 0.72 kg/m3 and the mass density (333.07 K, 11000 kPa, x1 = 0.0046) was 789.33 ± 0.72 kg/m3. For the same compound, the mass density (333.07 K, 12000 kPa, x1 = 0.0046) was 790.21 ± 0.73 kg/m3, the mass density (333.07 K, 13000 kPa, x1 = 0.0046) was 791.08 ± 0.73 kg/m3 and the mass density (333.07 K, 14000 kPa, x1 = 0.0046) was 791.94 ± 0.73 kg/m3. For the same compound, the mass density (333.07 K, 15000 kPa, x1 = 0.0046) was 792.79 ± 0.74 kg/m3, the mass density (333.07 K, 16000 kPa, x1 = 0.0046) was 793.62 ± 0.74 kg/m3 and the mass density (333.07 K, 17000 kPa, x1 = 0.0046) was 794.45 ± 0.74 kg/m3. It also gave a mass density (333.07 K, 18000 kPa, x1 = 0.0046) of 795.27 ± 0.75 kg/m3, a mass density (333.07 K, 19000 kPa, x1 = 0.0046) of 796.06 ± 0.75 kg/m3 and a mass density (333.07 K, 20000 kPa, x1 = 0.0046) of 796.84 ± 0.75 kg/m3.
